The target of experiment [1] is T1, VEGFR2 intracellular domain protein (Homo sapiens, UniProt P35968).
T1 construct: made in house; host or cells: SF-21 insect cells, recombinant baculovirus BAC-VEGFR2
The experiment is described as follows: Vascular endothelial growth factor receptor 2 (VEGFR2) kinase inhibitory activity (AlphaScreen). The experiment is classed as biochemical. As for the experimental part: Human vascular endothelial growth factor receptor 2 (hereinafter to be referred to as VEGFR2) gene was cloned by PCR using cDNA Libraries Human Placenta (Clontech) as a template. […] The primer base sequence is shown below.
SF-21 cells were sown at 1×10^6 cells/mL to Sf-900II SFM medium (1 L, Invitrogen) containing 10% fetal bovine serum (trace), 50 mg/L Gentamicin (Invitrogen) and 0.1% Pluronic F-68 (Invitrogen), and shaking culture was performed using a 2 L volume Erlenmeyer flask at 27° C., 100 rpm. After culturing for 24 hrs, recombinant baculovirus BAC-VEGFR2 (13.4 mL) was added to the mixture, and the mixture was further cultured for 3 days. The culture medium was centrifuged at 2,000 rpm for 5 min to give virus-infected cells. The infected cells were washed with a phosphate buffered saline (Invitrogen), centrifuged under the same conditions, and the cells were preserved at −80° C. The cryopreserved cells were thawed in ice, suspended in buffer A (50 mM Tris buffer (30 mL, pH 7.4) containing 20% glycerol, 0.15 M NaCl) supplemented with Complete Protease Inhibitor (Boehringer), and ruptured 3 times with a Polytron homogenizer (Kinematica) at 20,000 rpm for 30 sec. The ruptured medium was clarified by centrifugation at 40,000 rpm for 30 min and filtered with a 0.45 μm filter. The filtrate was passed through a column packed with Anti-FLAG M2 Affinity Gel (4 mL, Sigma) at a flow rate of about 0.5 mL/min. The column was washed with buffer A, and eluted with buffer A containing 100 μg/mL of FLAG peptide. The eluate was concentrated with Vivaspin 20 (Vivascience) having a molecular weight cut off of 30K. The buffer of this concentrate was exchanged using NAP™ 25 column (Amersham Bioscience) equilibrated with buffer A. The fractions containing intracellular domain protein of VEGFR2 were collected, glycerol was added to the final concentration of 50% and cryopreserved at −80° C.
(§1) A test compound dissolved in dimethyl sulfoxide (DMSO) was diluted with a buffer (50 mM Tris-HCl (pH 7.5), 5 mM MgCl2, 5 mM MnCl2, 2 mM dithiothreitol, 0.01% Tween-20). To this compound solution (5 μL) was added a buffer (10 μL) containing 50 ng/mL of VEGFR2 intracellular domain protein and 250 ng/mL of biotin labeled polypeptide biotinyl-poly-Glu:Tyr (4:1) (CIS bio International). […] The reaction solution was allowed to stand at 25° C. for 16 hrs, and the wells were counted using a plate reader (Fusion™ (PerkinElmer)). The kinase inhibitory rate (%) of the test compound was calculated by the following formula: Inhibitory rate (%)=(1−(count of test compound−blank)÷(control−blank))×100
(§2) The count of the solution reacted without addition of the compound was used as a “control”, and the count of the solution without the compound and ATP was used as a “blank”.
On the technique in general: Alpha assays give light when donor and acceptor beads are brought close together.

Experiment [2] concerns the target T2, Tie2 intracellular domain protein (Homo sapiens, UniProt Q02763).
T2 construct: 50 ng/mL of Tie2 intracellular domain protein (Millipore); purchased Millipore
The experiment is described as follows: TIE2 kinase inhibitory activity (AlphaScreen). Format: biochemical. As for the experimental part: A test compound dissolved in dimethyl sulfoxide (DMSO) was diluted with a buffer (50 mM Tris-HCl (pH 7.5), 5 mM MgCl2, 5 mM MnCl2, 2 mM dithiothreitol, 0.01% Tween-20). A buffer (10 μL) containing 50 ng/mL of Tie2 intracellular domain protein (Millipore) and 250 ng/ml, of biotin labeled polypeptide biotinyl-poly-Glu:Tyr (4:1) (CIS bio International) was added to the compound solution (5 μL). At 5 min from the mixing of the kinase enzyme, the compound and the biotin labeled polypeptide, a buffer (10 μL) containing 5 μM ATP was added, and the mixture was reacted at 25° C. for 10 min. The reaction was quenched by the addition of 25 μL of a stop solution (100 mM EDTA disodium salt, 62.5 mM HEPES buffer (pH 7.4), 250 mM NaCl, 0.1% bovine serum albumin, 10 μg/ml AlphaScreen assay streptavidin donor beads (Streptavidin Donor beads: PerkinElmer), 10 μg/ml, AlphaScreen assay anti-phosphotyrosine recognition antibody PT-66 binding acceptor beads (Anti-phosphotyrosine (PT-66) Acceptor beads: PerkinElmer)). The reaction solution was allowed to stand at 25° C. for 16 hrs, and the […] were counted using a plate reader (Fusion™ (PerkinElmer)). The kinase inhibitory rate (%) of the test compound was calculated by the following formula: Inhibitory rate (%)=(1−(count of test compound−blank)÷(control−blank))×100
as §2

The subject of experiment [3] is Human umbilical vein-derived vascular endothelial cells (HUVEC). The experiment is described as follows: Vascular endothelial cell proliferation inhibitory test (VEGF-stimulated HUVEC). Format: cell-based. The conditions noted are these: 120 h, 5 days of culture with VEGF. The procedure:
Human umbilical vein-derived vascular endothelial cells (HUVEC purchased from KURABO […] LTD.) were cultured in an incubator at 37° C., 5% carbon dioxide in a vascular endothelial cell medium (Invitrogen) containing 3% bovine fetal serum and 2.5 ng/mL basic fibroblast growth factor. To be specific, HUVEC was suspended in a vascular endothelial cell medium containing the aforementioned 3% bovine fetal serum and plated on a 96 well flat bottom plate by 50 μL (3000 cells) each well. After culture overnight, various concentrations of the test substance and 120 ng/mL of vascular endothelial growth factor (VEGF) were dissolved in a vascular endothelial cell medium containing 3% bovine fetal serum and added to each well by 50 μL. After 5 days of culture, a Cell counting kit-8 reagent (DOJINDO LABORATORIES) was added to each well by 10 μL, and the mixture was reacted in an incubator at 37° C., 5% carbon dioxide for 2-3 hr. The absorbance at 450 nm was measured by a microtiter plate reader and the cell proliferation inhibitory activity was determined. Using the absorbance with addition of a test substance at each concentration and based on the nonlinear least-squares analysis using a logistic curve of SAS system NLIN procedure, the concentration of the test substance (IC50 value) necessary for showing 50% of the value obtained without addition of the test substance was calculated.

Experiment [4] has as its target T3, c-Met intracellular domain protein (Homo sapiens, UniProt P08581).
T3 construct: 2.5 ng/ml of c-Met intracellular domain protein (Millipore); purchased Millipore
Nature of the experiment: Hepatocyte growth factor receptor (c-Met) kinase inhibitory activity (AlphaScreen). Format: biochemical. The conditions noted are these: for inhibition at 1 µM: 1 μM test compound, read-out: inhibitory rate (%) at 1 μM. As for the experimental part: as §1, with “containing 2.5 ng/ml” for “containing 50 ng/mL”, “of c-Met” for “of VEGFR2”, “protein (Millipore)” for “protein”
as §2

Molecules are shown by their SMILES. pIC50: −log10 of the molar value.

The values that follow come from patent US8445509B2, “Fused heterocyclic derivatives and use thereof” (Takeda Pharmaceutical Company Limited, priority 2008, dated 2013).

T2 sequence (Q02763 770-1124 limits assumed): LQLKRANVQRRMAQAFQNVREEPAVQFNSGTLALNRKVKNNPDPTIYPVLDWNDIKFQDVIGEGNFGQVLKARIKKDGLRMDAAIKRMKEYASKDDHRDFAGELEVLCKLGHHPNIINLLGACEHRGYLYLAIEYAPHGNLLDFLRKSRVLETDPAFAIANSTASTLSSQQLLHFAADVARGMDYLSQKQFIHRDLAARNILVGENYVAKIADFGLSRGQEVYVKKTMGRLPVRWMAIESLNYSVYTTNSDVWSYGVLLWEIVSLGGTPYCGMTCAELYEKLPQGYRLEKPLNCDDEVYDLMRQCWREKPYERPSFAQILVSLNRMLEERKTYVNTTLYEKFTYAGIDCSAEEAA
T1 sequence (P35968 786-1356 limits assumed): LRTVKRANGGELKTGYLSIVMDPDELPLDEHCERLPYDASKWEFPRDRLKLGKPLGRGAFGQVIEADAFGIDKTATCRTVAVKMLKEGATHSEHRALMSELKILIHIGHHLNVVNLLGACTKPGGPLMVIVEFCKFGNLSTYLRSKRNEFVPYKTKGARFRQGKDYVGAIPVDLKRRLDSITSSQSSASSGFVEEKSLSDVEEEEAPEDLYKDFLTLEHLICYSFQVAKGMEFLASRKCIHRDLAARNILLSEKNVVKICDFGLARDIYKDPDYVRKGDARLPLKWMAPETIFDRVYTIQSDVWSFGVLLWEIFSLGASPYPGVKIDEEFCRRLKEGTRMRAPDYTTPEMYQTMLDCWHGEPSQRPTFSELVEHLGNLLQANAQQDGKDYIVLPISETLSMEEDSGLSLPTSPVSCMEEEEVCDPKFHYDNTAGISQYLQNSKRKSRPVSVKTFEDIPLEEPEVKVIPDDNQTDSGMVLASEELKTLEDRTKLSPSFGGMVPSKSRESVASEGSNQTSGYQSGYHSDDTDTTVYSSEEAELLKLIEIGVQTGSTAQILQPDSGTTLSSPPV
T3 sequence (P08581 956-1390 limits assumed): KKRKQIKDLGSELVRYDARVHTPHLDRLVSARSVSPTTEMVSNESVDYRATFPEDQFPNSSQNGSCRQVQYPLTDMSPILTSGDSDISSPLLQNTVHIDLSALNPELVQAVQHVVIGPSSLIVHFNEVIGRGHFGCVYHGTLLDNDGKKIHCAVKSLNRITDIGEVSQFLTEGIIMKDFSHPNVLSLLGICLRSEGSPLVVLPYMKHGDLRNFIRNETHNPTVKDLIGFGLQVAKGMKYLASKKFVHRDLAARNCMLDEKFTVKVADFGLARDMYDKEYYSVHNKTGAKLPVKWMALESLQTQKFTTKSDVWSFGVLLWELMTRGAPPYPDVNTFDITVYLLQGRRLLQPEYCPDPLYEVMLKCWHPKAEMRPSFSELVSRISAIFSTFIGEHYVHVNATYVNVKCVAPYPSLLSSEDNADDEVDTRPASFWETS

In general, pIC50 refers to −log10 of the IC50, conventionally taken in molar units. For `O=C(Nc1ccc(Oc2ccc3nc(NC(=O)C4CC4)cn3c2)c(F)c1)c1cccn(-c2ccc(F)cc2)c1=O` [Example 10, N-[4-({2-[(cyclopropylcarbonyl)amino]imidazo[1,2-a]pyridin-6-yl}oxy)-3-fluorophenyl]-1-(4-fluorophenyl)-2-oxo-1,2-dihydropyridine-3-carboxamide], the pIC50 in experiment [1] was ≥ 6.00; in experiment [2], ≥ 6.00; in experiment [3], ≥ 5.70; in experiment [4], ≥ 6.00. Moreover, in experiment [4], the inhibition at 1 µM is ≥ 80%.

Consider `O=C(Nc1cn2cc(Oc3ccc(NC(=O)C4(C(=O)Nc5ccc(F)cc5)CC4)cc3F)ccc2n1)C1CC1` [Example 11, N-[4-({2-[(cyclopropylcarbonyl)amino]imidazo[1,2-a]pyridin-6-yl}oxy)-3-fluorophenyl]-N′-(4-fluorophenyl)cyclopropane-1,1-dicarboxamide], for which the pIC50 in experiment [1] was ≥ 6.00; in experiment [2], ≥ 6.00; in experiment [3], ≥ 5.70; in experiment [4], ≥ 6.00. Further, in experiment [4], the inhibition at 1 µM is ≥ 80%.

`O=C(Nc1cn2cc(Oc3ccc(NC(=O)C4(C(=O)Nc5ccccc5)CC4)cc3F)ccc2n1)C1CC1` [Example 14, N-[4-({2-[(cyclopropylcarbonyl)amino]imidazo[1,2-a]pyridin-6-yl}oxy)-3-fluorophenyl]-N′-phenylcyclopropane-1,1-dicarboxamide]: the pIC50 in experiment [1] is ≥ 6.00; in experiment [2], ≥ 6.00; in experiment [3], ≥ 5.70; in experiment [4] it was ≥ 6.00. Further, the inhibition at 1 µM in experiment [4] was ≥ 80%.

Take `O=C(Nc1nc2ccc(Oc3ccc(NC(=O)C4(C(=O)Nc5ccccc5)CC4)cc3F)cc2s1)C1CC1` [Example 18, N-[4-({2-[(cyclopropylcarbonyl)amino]-1,3-benzothiazol-6-yl}oxy)-3-fluorophenyl]-N′-phenylcyclopropane-1,1-dicarboxamide]: the pIC50 in experiment [1] was ≥ 6.00; in experiment [2], ≥ 6.00; in experiment [3], ≥ 5.70; in experiment [4] it was ≥ 6.00. In addition, the inhibition at 1 µM in experiment [4] is ≥ 80%.

For the molecule `Cc1ccc(C(=O)Nc2ccc(Oc3ccc4nc(NC(=O)C5CC5)cn4c3)cc2)c(=O)n1-c1ccc(F)cc1` [Example 28, N-[4-({2-[(cyclopropylcarbonyl)amino]imidazo[1,2-a]pyridin-6-yl}oxy)phenyl]-1-(4-fluorophenyl)-6-methyl-2-oxo-1,2-dihydropyridine-3-carboxamide], the pIC50 in experiment [1] was ≥ 6.00; in experiment [2] it was ≥ 6.00; in experiment [3], ≥ 5.70; in experiment [4] it was ≥ 6.00. Moreover, the inhibition at 1 µM in experiment [4] is ≥ 80%.

`Cc1ccc(C(=O)Nc2ccc(Oc3ccc4nc(NC(=O)C5CC5)cn4c3)c(F)c2)[n+]([O-])c1-c1ccc(F)cc1` [Example 29, N-[4-({2-[(cyclopropylcarbonyl)amino]imidazo[1,2-a]pyridin-6-yl}oxy)-3-fluorophenyl]-6-(4-fluorophenyl)-5-methylpyridine-2-carboxamide 1-oxide]: the pIC50 in experiment [1] was ≥ 6.00; in experiment [2], ≥ 6.00; in experiment [3], ≥ 5.70; in experiment [4], ≥ 6.00. Besides, in experiment [4], the inhibition at 1 µM is ≥ 80%.

`Cc1ccc(C(=O)Nc2ccc(Oc3ccc4nc(NC(=O)C5CC5)cn4c3)c(F)c2)c(=O)n1-c1ccc(F)cc1.Cl` [Example 32, N-[4-({2-[(cyclopropylcarbonyl)amino]imidazo[1,2-a]pyridin-6-yl}oxy)-3-fluorophenyl]-1-(4-fluorophenyl)-6-methyl-2-oxo-1,2-dihydropyridine-3-carboxamide hydrochloride]: the pIC50 in experiment [1] was ≥ 6.00; in experiment [3], ≥ 5.70; in experiment [4], ≥ 6.00. Further, the inhibition at 1 µM in experiment [4] was ≥ 80%.

As to `Cc1ccc(C(=O)Nc2ccc(Oc3ccc4nc(NC(=O)C5CC5)cn4c3)c(F)c2)c(=O)n1-c1ccc(F)c(F)c1` [Example 45, N-[4-({2-[(cyclopropylcarbonyl)amino]imidazo[1,2-a]pyridin-6-yl}oxy)-3-fluorophenyl]-1-(3,4-difluorophenyl)-6-methyl-2-oxo-1,2-dihydropyridine-3-carboxamide], the pIC50 in experiment [1] was ≥ 6.00; in experiment [2], ≥ 6.00; in experiment [3] it was ≥ 5.70; in experiment [4] it was ≥ 6.00. Further, in experiment [4], the inhibition at 1 µM was ≥ 80%.

Turning to `Cc1c(C(=O)Nc2ccc(Oc3ccc4nc(NC(=O)C5CC5)cn4c3)c(F)c2)c(=O)n(-c2ccccc2)n1C` [Example 46, N-[4-({2-[(cyclopropylcarbonyl)amino]imidazo[1,2-a]pyridin-6-yl}oxy)-3-fluorophenyl]-1,5-dimethyl-3-oxo-2-phenyl-2,3-dihydro-1H-pyrazole-4-carboxamide], the pIC50 in experiment [1] was ≥ 6.00; in experiment [2], ≥ 6.00; in experiment [3] it was ≥ 5.70; in experiment [4] it was ≥ 6.00. In experiment [4], the inhibition at 1 µM is ≥ 80%.

As for `O=C(Nc1cn2cc(Oc3ccc(NC(=O)N4CCN(c5ccc(F)cc5)C4=O)cc3F)ccc2n1)C1CC1` [Example 53, N-[4-({2-[(cyclopropylcarbonyl)amino]imidazo[1,2-a]pyridin-6-yl}oxy)-3-sfluorophenyl]-3-(4-fluorophenyl)-2-oxoimidazolidine-1-carboxamide], the pIC50 in experiment [1] was ≥ 6.00; in experiment [2] it was ≥ 6.00; in experiment [3], ≥ 5.70; in experiment [4] it was ≥ 6.00. For the same molecule, the inhibition at 1 µM in experiment [2] (1 μM test compound, read-out: inhibitory rate (%) at 1 μM) is ≥ 50%; in experiment [4], ≥ 80%.
